Measured values reported in the supplement of paper PMC10307832.

Tests used:
Test in all cases: relative viability (nuclei count vs DMSO), 5 days (fraction); higher = more cells survive
[1] = compound: COc1cc2nc(N3CCCN(C)CC3)nc(NC3CCN(Cc4ccccc4)CC3)c2cc1OC + Cc1nc(NC(=O)N2CCC[C@H]2C(N)=O)sc1-c1ccnc(C(C)(C)C(F)(F)F)c1 [Alpelisib] (partner 2 µM)
How it was run: (§1)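 Values are medians from duplicate plates. Each reflects relative viability, defined as the nuclei count of treated wells over that of vehicle wells. Lung cancer cell lines in 1536-well plates were pin-tool dosed one day after seeding with one drug alone or with a fixed anchor-drug dose plus five library-drug doses (not always all listed) in √10 steps, then fixed, stained and imaged at 4× after 5 days.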

[2] = compound: Cc1cc([C@@H](C)Nc2ccccc2C(=O)O)c2nc(N3CCOCC3)cc(=O)n2c1 [AZD6482] + CC(C)C[C@H](NC(=O)[C@H](Cc1ccccc1)NC(=O)c1cnccn1)B(O)O [Bortezomib] (partner 0.002 µM)
How it was run: as §1

[3] = compound: COc1cc2nc(N3CCCN(C)CC3)nc(NC3CCN(Cc4ccccc4)CC3)c2cc1OC
How it was run: (§2)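 Viability here means nuclei in treated wells divided by nuclei in vehicle wells, reported as the median across plates. Only plates with control CV below 25% and at least one doubling passed. Lung cancer cell lines in 1536-well plates were exposed to five √10-spaced library-drug doses for 5 days and counted from 4× Hoechst images in MetaXpress.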

[4] = compound: Cc1cc([C@@H](C)Nc2ccccc2C(=O)O)c2nc(N3CCOCC3)cc(=O)n2c1 [AZD6482]
How it was run: as §2

Row | Cell Line | relative viability ([1]; first compound 0.2 µM) | relative viability ([1]; first compound 0.6325 µM) | relative viability ([1]; first compound 2 µM) | relative viability ([1]; first compound 6.325 µM) | relative viability ([2]; first compound 0.08 µM) | relative viability ([2]; first compound 0.253 µM) | relative viability ([2]; first compound 0.8 µM) | relative viability ([2]; first compound 2.53 µM) | relative viability ([2]; first compound 8 µM) | relative viability ([3]; 0.2 µM) | relative viability ([3]; 0.6325 µM) | relative viability ([3]; 2 µM) | relative viability ([3]; 6.325 µM) | relative viability ([4]; 0.08 µM) | relative viability ([4]; 0.253 µM) | relative viability ([4]; 0.8 µM) | relative viability ([4]; 2.53 µM) | relative viability ([4]; 8 µM)
1 | NCI-H1975 | 0.718 | 0.597 | 0.727 | 0.616 | 0.345 | 0.375 | 0.384 | 0.323 | 0.301 | 0.974 | 0.999 | 1.15 | 1 | 0.853 | 0.84 | 0.939 | 0.652 | 0.573
2 | CAL-12T | 1.21 | 1.23 | 1.16 | 1.15 | 0.843 |  | 0.895 | 0.426 | 0.597 | 0.905 | 0.964 | 1.02 | 0.933 | 0.959 | 0.979 | 1.1 | 0.731 | 0.839
3 | NCI-H1623 |  |  |  |  |  |  |  |  |  | 0.933 | 0.965 | 0.979 | 0.966 | 0.899 | 0.947 | 0.955 | 0.76 | 0.632
4 | HCC-44 | 0.832 | 0.748 | 0.841 | 0.746 | 0.799 | 1.01 | 0.975 | 1.04 | 0.88 | 0.98 | 0.996 | 0.998 | 0.981 | 0.873 | 0.971 | 1 | 1.05 | 1.03
5 | EKVX | 0.918 | 0.833 | 0.92 | 0.784 | 0.815 | 0.965 | 0.863 | 0.789 | 0.689 | 0.953 | 1.04 | 0.962 | 0.954 | 0.813 | 0.819 | 0.832 | 0.549 | 0.654
6 | NCI-H1651 | 0.921 | 0.915 | 1.16 | 1.1 | 0.918 | 0.941 | 0.905 | 0.809 | 0.825 | 0.974 | 0.983 | 1.02 | 1.03 | 0.897 | 0.932 | 0.93 | 0.814 | 0.815
7 | NCI-H1944 | 0.822 | 0.909 |  | 0.912 |  |  |  |  |  | 1.01 | 1 | 0.745 | 0.902 | 0.92 | 0.836 | 0.946 | 0.685 | 0.735
8 | NCI-H1703 | 0.313 | 0.265 | 0.402 | 0.353 | 0.377 | 0.301 | 0.331 | 0.191 | 0.238 | 1.09 | 0.789 | 0.975 | 0.571 | 0.861 | 0.797 | 0.676 | 0.332 | 0.414
9 | NCI-H358 | 0.935 | 0.888 | 1.01 | 0.533 |  |  |  |  |  | 0.918 | 1.03 | 0.939 | 0.684 | 0.856 | 0.86 | 0.92 | 0.468 | 0.489
10 | NCI-H1793 | 0.677 | 0.722 | 0.812 | 0.785 |  |  |  |  |  | 0.86 | 0.959 | 0.863 | 0.819 | 0.774 | 0.5 | 0.756 | 0.386 | 0.499
11 | ChaGo-K-1 |  |  |  |  | 1.09 |  | 1.14 | 0.981 | 1.27 | 0.944 | 0.985 | 1.03 | 0.94 | 1.07 | 0.839 | 1.05 | 0.91 | 0.983
12 | NCI-H2342 |  |  |  |  |  |  |  |  |  | 1.02 | 0.887 | 0.956 | 0.995 | 0.892 | 0.87 | 0.92 | 0.653 | 0.688
13 | NCI-H1650 |  |  |  |  | 0.192 |  | 0.188 | 0.205 | 0.202 | 0.863 | 1.03 | 0.924 | 0.835 | 0.839 | 0.854 | 0.778 | 0.719 | 0.862
14 | SW 900 |  |  |  |  |  |  |  |  |  | 0.81 | 1.03 | 0.89 | 0.752 | 0.675 | 0.683 | 0.691 | 0.486 | 0.778
15 | SK-MES-1 | 1.08 | 0.887 | 0.975 | 0.827 |  |  |  |  |  | 1.01 | 1.01 | 1.03 | 0.791 | 0.794 | 0.946 | 0.709 | 0.405 | 0.444
16 | NCI-H1648 |  |  |  |  |  |  |  |  |  | 0.713 | 0.798 | 0.757 | 1.13 | 0.888 | 0.863 | 0.954 | 0.519 | 0.599
17 | NCI-H522 |  |  |  |  |  |  |  |  |  | 0.987 | 1.01 | 0.936 | 1.02 | 0.959 | 0.789 | 0.981 | 0.926 | 0.768
18 | LK-2 | 1.02 | 1.05 | 1.26 | 1.01 |  |  |  |  |  | 1 | 1.09 | 1.06 | 0.995 | 1.07 | 0.915 | 1.07 | 0.818 | 0.781
19 | NCI-H1395 | 1.1 | 1.04 | 1.07 | 0.589 |  |  |  |  |  | 0.925 | 1.09 | 0.976 | 0.787 | 0.742 | 0.539 | 0.697 | 0.443 | 0.527
20 | A549 | 0.694 | 0.8 | 0.761 | 0.722 |  |  |  |  |  | 1.02 | 1.01 | 0.992 | 0.935 | 0.935 | 0.965 | 0.947 | 0.566 | 0.769
21 | NCI-H2170 | 0.838 | 0.805 | 0.851 | 0.835 |  |  |  |  |  | 1.02 | 0.963 | 1 | 0.975 | 0.909 | 0.897 | 0.944 | 0.851 | 0.927
